Reference: patent publication US5763435A, “Sulfate conjugates of ursodeoxycholic acid, and their beneficial use in inflammatory disorders” (priority 1995, dated 1998)
“Also recorded” adds a separate entry of the source.

Key:
[1] = tested on: Principal Bile Acids in Liver; experiment: Bile acid composition of liver tissue after oral administration (GC-MS); format: in vivo, Sprague-Dawley rats
Description: Male Sprague-Dawley rats (Harlan Sprague-Dawley, Inc., Indianapolis, Ind.), weighing 210-290 g, were maintained on a 12-hour light-dark cycle and fed standard laboratory chow ad libitum for 3 days. The animals were then transferred to metabolic cages in which they were housed individually and fed the same diet. UDCA, UDCA 3-sulfate, UDCA 7-sulfate, and UDCA 3,7-disulfate were administered by gavage at a dose of 250 mg/day for 4 consecutive days. Each group comprised 3-6 rats. Body weights of the animals were measured each day. On day 5, the animals were killed by exsanguination under ether anesthesia. Plasma was collected and frozen at -20° C. The liver was removed, rinsed in normal saline, and flash-frozen in liquid nitrogen. Urine and feces were collected every 24 hours and frozen at -20° C. All animals received humane care in compliance with the "Guide for the Care and Use of Laboratory Animals" prepared by the National Academy of Sciences (National Institutes of Health publication no. 86-23, revised in 1985).
Samples of liver (100 mg) were ground to a fine paste, and bile acids were extracted by reflux and passage through a column of Lipidex 1000 as described above for intestinal contents and feces. Group separation of bile acids, according to their mode of conjugation was achieved by lipophilic anion-exchange chromatography. Extracts from each animal were pooled, and bile acids and their conjugates were separated using Lipidex-DEAP and stepwise elution of the gel bed with the following buffers: 0.1 mol/L acetic acid in 72% ethanol (unconjugated bile acids); 0.3 mol/L acetic acid in 72% ethanol, pH 5.0 (glycine conjugates); 0.15 mol/L acetic acid in 72% ethanol, pH 6.5 (taurine conjugates); and 0.3 mol/L acetic acid in 72% ethanol, pH 9.6 (sulfate conjugates). After evaporation of the buffers, sulfated bile acids were solvolyzed, whereas amidated conjugates were hydrolyzed with 50 U of cholylglycine hydrolase (Sigma Chemical Co.) in 2.5 mL of 0.2 mol/L phosphate buffer, pH 5.6, at 37° C. overnight. The resulting unconjugated bile acids were isolated on Lipidex-DEAP, and the methyl ester-trimethylsilyl ether derivatives were prepared as described above.
GC-MS analysis was performed using a Finnigan 4635 mass spectrometer (Finnigan Inc., San Jose, Calif.) that housed an identical gas chromatography column operated under the same conditions. Electron ionization (70 eV) mass spectra were recorded over the mass range of 50-800 daltons by repetitive scanning of the eluting components. Identification of bile acids was made on the basis of the gas chromatography retention index relative to a homologous series of n-alkanes, referred to as the methylene unit value, and the mass spectrum compared with authentic standards. Quantification of bile acids was achieved using gas chromatography by comparing the peak height response of the individual bile acids with the peak height response obtained from the internal standard.
Data are expressed as mean±SEM or as mean values of all animals when extracts were pooled before analysis. Results from different groups were compared using paired and unpaired two-tailed Student's t-test. P values of <0.05 were considered statistically significant.

[2] = Urinary excretion after i.v. infusion; format: in vivo, Sprague-Dawley rats; conditions: rat, urine, iv, read-out: Proportion of administered dose appearing in urine
Description: Adult male Sprague-Dawley rats (body weight 200-230 g) were anesthetized by an intraperitoneal injection of pentobarbital (Nembutal, 7.5 mg/100 g body weight), and maintained under sedation by additional doses. The right jugular vein and the common bile duct were cannulated using PE-50 polyethylene tubing (Clay-Adams, Parsippany, N.J.). Body temperature was maintained throughout the experiment at 37° C. using a rectal probe and a thermostatically controlled heating pad (Harvard Apparatus Co., Inc., Millis, Mass.). Saline was infused at a rate of 1.0 ml/h using a Harvard pump (Harvard Apparatus Co., Inc.) into the jugular vein for a control period of 2h. After collecting two 10 minute bile samples for base-line analysis, the bile acids were individually infused intravenously (i.v.) for 30 minutes in stepwise increasing doses (0.5, 1.0, and 2.0 μmol/min/100 g body weight). Bile acid solutions were prepared in 3% human albumin in 0.45% saline. Six animals were used for each experiment and bile was collected every 10 minutes into preweighed tubes. At the end of the experiment, blood was obtained by cardiac puncture, and urine was obtained by aspiration of the bladder. All biological specimens were stored at -20° C. This animal study protocol (#1 B 10044) was approved by the Bioethics committee of the Children's Hospital Medical Center (Cincinnati, Ohio).
Negative ion fast atom bombardment-mass spectrometry (FAB-MS) spectra of bile samples, urine and synthetic compounds were obtained after placing the equivalent of approximately 1 μl of the original bile extract, 10 μl-50 μl of the urine extract and jig quantities of synthetic bile acids dissolved in methanol onto a small drop of a glycerol matrix spotted on a copper target of the FAB probe. This probe was introduced directly into the ion source of the mass spectrometer and a beam of fast atoms of either xenon generated with a saddle field atom gun (ion Tech, Teddington, Middlesex, UK) operated at 8 kV and 20 μA, or cesium generated from cesium iodine (35 kV), was fired at the target containing the sample. Negative ion spectra were obtained over the mass range of 50-1000 Da/e.
Urine collections from the six animals were pooled and the bile acids were extracted by liquid-solid extraction using a Bond Elut-C18 cartridge and bile acids were analyzed by GC-MS after solvolysis, hydrolysis and derivatization.

| SMILES | Chenodeoxycholic acid concentration in liver ([1]; oral gavage 250 mg/day, 4 days) [nmol/g] | Chenodeoxycholic acid percent of hepatic bile acids ([1]; oral gavage 250 mg/day, 4 days) [%] | Cholic acid concentration in liver ([1]; oral gavage 250 mg/day, 4 days) [nmol/g] | Cholic acid percent of hepatic bile acids ([1]; oral gavage 250 mg/day, 4 days) [%] | Deoxycholic acid concentration in liver ([1]; oral gavage 250 mg/day, 4 days) [nmol/g] | Deoxycholic acid percent of hepatic bile acids ([1]; oral gavage 250 mg/day, 4 days) [%] | Lithocholic acid concentration in liver ([1]; oral gavage 250 mg/day, 4 days) [nmol/g] | Lithocholic acid percent of hepatic bile acids ([1]; oral gavage 250 mg/day, 4 days) [%] | Total bile acid concentration in liver ([1]; oral gavage 250 mg/day, 4 days) [nmol/g] | UDCA percent of hepatic bile acids ([1]; oral gavage 250 mg/day, 4 days) [%] | Δ^22-UDCA concentration in liver ([1]; oral gavage 250 mg/day, 4 days) [nmol/g] | Δ^22-UDCA percent of hepatic bile acids ([1]; oral gavage 250 mg/day, 4 days) [%] | Δ^22-β-Muricholic acid concentration in liver ([1]; oral gavage 250 mg/day, 4 days) [nmol/g] | Δ^22-β-Muricholic acid percent of hepatic bile acids ([1]; oral gavage 250 mg/day, 4 days) [%] | Δ^22-ω-Muricholic acid concentration in liver ([1]; oral gavage 250 mg/day, 4 days) [nmol/g] | Δ^22-ω-Muricholic acid percent of hepatic bile acids ([1]; oral gavage 250 mg/day, 4 days) [%] | α-Muricholic acid concentration in liver ([1]; oral gavage 250 mg/day, 4 days) [nmol/g] | α-Muricholic acid percent of hepatic bile acids ([1]; oral gavage 250 mg/day, 4 days) [%] | β-Muricholic acid concentration in liver ([1]; oral gavage 250 mg/day, 4 days) [nmol/g] | β-Muricholic acid percent of hepatic bile acids ([1]; oral gavage 250 mg/day, 4 days) [%] | other results |
| --- | --- | --- | --- | --- | --- | --- | --- | --- | --- | --- | --- | --- | --- | --- | --- | --- | --- | --- | --- | --- | --- |
| C[C@H](CCC(=O)O)[C@H]1CC[C@H]2[C@@H]3[C@@H](O)C[C@@H]4C[C@H](O)CC[C@]4(C)[C@H]3CC[C@]12C [UDCA, 3 alpha, 7 beta-dihydroxy-5 beta-cholan-24oic acid, reference compound] | 12.4 | 3.7 | 42.3 | 12.7 | 22.5 | 6.8 | 8.0 | 2.4 | 331.8 | 30.0 | 37.4 | 11.3 | 20.9 | 6.3 | 4.8 | 1.4 | 16.1 | 4.8 | 60.6 | 18.3 | Conjugation of UDCA in liver tissue ([1]; oral): biotransformed by conjugation, mainly with taurine; also recorded: predominantly conjugated by amidation; Fold decrease of liver tissue cholic acid concentration ([1]; oral): ~4 fold; UDCA concentration in liver ([1]; oral gavage 250 mg/day, 4 days): 99.6 nmol/g; ω-Muricholic acid concentration in liver ([1]; oral gavage 250 mg/day, 4 days): 6.3 nmol/g; ω-Muricholic acid percent of hepatic bile acids ([1]; oral gavage 250 mg/day, 4 days): 1.9%; Hepatic UDCA concentration change (in words) ([1]; oral, vs control): increased concentrations and proportions of liver tissue UDCA; also recorded: increased markedly; Hepatic lithocholic acid change (in words) ([1]; oral, vs control): increased hepatic lithocholic acid concentration; dose excreted [2]: 0.01% |
| C[C@H](CCC(=O)O)[C@H]1CC[C@H]2[C@@H]3[C@@H](O)C[C@@H]4C[C@H](OS(=O)(=O)O)CC[C@]4(C)[C@H]3CC[C@]12C [UDCA-3S, ursodeoxycholic acid 3-sulfate] | 9.2 | 2.5 | 86.6 | 23.9 | 52.6 | 14.5 | 3.2 | 0.9 | 361.7 | 15.6 | 31.3 | 8.6 | 36.3 | 10.0 | 6.3 | 1.7 | 6.0 | 1.6 | 65.4 | 18.1 | ω-Muricholic acid concentration in liver ([1]; oral gavage 250 mg/day, 4 days): 8.1 nmol/g; ω-Muricholic acid percent of hepatic bile acids ([1]; oral gavage 250 mg/day, 4 days): 2.2%; Hepatic UDCA concentration change (in words) ([1]; oral, vs control): increased concentrations and proportions of liver tissue UDCA; Conjugation of UDCA in liver tissue ([1]; oral, listed as C-3 sulfate): biotransformed by conjugation, mainly with taurine; Conjugation of UDCA in liver tissue ([1]; oral, listed as UDCA 3-sulfate): significant desulfation and amidation; dose excreted [2]: 2.8% |
